In patent US20260166159A1, “KRAS G12D DEGRADATION AGENT, AND PREPARATION METHOD AND USE THEREFOR” (LEADINGTAC PHARMACEUTICAL (SHAOXING) CO., LTD., priority 2022, published 2026):
pIC50: −log10 of the molar value.

Key:
[1] = system: KRAS G12D mutant human lung cancer cell A427; assay: 3D cell proliferation inhibition assay, A427; type: cell-based; conditions: A-427, 168 h, A427, 7 days, CTG, numeric values
Summary of the method: (§1)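 Cells were seeded at 5×10^2 cells/well in low-adsorption plates with compound (10000–0.026 nM final, 0.2% DMSO) and grown for 7 days at 37 °C, 5% CO2. Viability was read by CTG luminescence after 60 min at room temperature. IC50 came from log concentration–inhibition curve fits, normalised to DMSO and medium-only controls.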

[2] = system: KRAS G12D mutant human pancreatic cancer cell HPAC; assay: 3D cell proliferation inhibition assay, HPAC; type: cell-based; conditions: 168 h, 7 days, CTG
Summary of the method: as §1

KRAS-G12D [3] = target: T1, KRAS-G12D (Homo sapiens, UniProt P01116, G12D); assay: KRAS-G12D degradation assay (Western Blot), A-427 cells; type: cell-based; conditions: A427 cells, 24 h, numeric values
T1 construct: endogenous in cells; host or cells: A-427 (ATCC), AGS, AsPc-1, Panc 04.03
T1 sequence (P01116 1-188 isoform P01116-2 G12D): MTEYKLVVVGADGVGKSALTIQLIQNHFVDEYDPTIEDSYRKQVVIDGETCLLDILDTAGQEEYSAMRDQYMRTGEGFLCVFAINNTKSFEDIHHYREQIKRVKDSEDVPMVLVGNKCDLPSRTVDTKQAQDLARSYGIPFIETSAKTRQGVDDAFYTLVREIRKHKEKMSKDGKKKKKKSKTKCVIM
Summary of the method: (§2)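 Each KRAS G12D mutant line (A-427, AGS, AsPc-1, Panc 04.03) was seeded at 5×10^5 cells/well and treated 24 h at 37 °C with 0.03–3000 nM compound (final DMSO 0.25%). KRAS in lysates was measured by Western blot, normalized to β-actin and compared with controls, giving DC50 and Dmax from curve fits.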

[4] = system: KRAS G12D mutant human pancreatic cancer cell Panc 04.03; assay: 3D cell proliferation inhibition assay, Panc 04.03; type: cell-based; conditions: 168 h, Panc 04.03, 7 days, CTG, numeric values
Description: The inhibitory effects of the compounds on 3D cell proliferation were investigated on KRAS G12D mutant human lung cancer cell A427, KRAS G12D mutant human gastric cancer cell AGS, KRAS G12D mutant human metastatic pancreatic cancer cell AsPc-1, KRAS G12D mutant human pancreatic cancer cell Panc 04.03, KRAS G12D mutant human pancreatic cancer cell HPAC, KRAS G12V mutant human lung squamous cell carcinoma cell SW900, and KRAS WT human gastric cancer cell MKN1. The specific procedures were as follows:
10 μL of each compound solution diluted in a gradient was added to corresponding wells of a 96-well low-adsorption microplate (PerkinElmer), so that the final concentrations of the test compounds in the reaction system were in a range of 10000-0.026 nM. The final concentration of DMSO was 0.2%. Then 90 µL of cells were correspondingly seeded into each well to achieve a cell density of 5×10^2 cells/well (the cell density of SW900 was 5×10^1 cells/well, and the cell density of MKN1 was 1×10^3 cells/well). In addition to test wells for the test compounds, both a DMSO control well and a medium control well were set, with the DMSO control well containing DMSO and cells and the medium well containing only a medium. After the sample loading, the 96-well low-adsorption microplate was incubated in an incubator at 37° C. with 5% carbon dioxide for 7 days. After 7 days, the microplate was taken out, and 100 μL of CTG reagent (Promega) was added to each well. The plate was incubated at room temperature for 60 min and read on a microplate reader EnVision by the chemiluminescence program. The inhibition rates of the compounds at each concentration were calculated using the formula for the percentage inhibition of cell proliferation: inhibition rate %=(mean value of DMSO control group−single concentration reading value of compound)/(mean value of DMSO control group−mean value of medium control group)×100. Then non-linear curve fittings for logarithmic concentration-inhibition rate were performed by GraphPad Prism 8, and the IC50 values of the compounds were obtained (Table 5).

[5] = system: KRAS G12D mutant human metastatic pancreatic cancer cell AsPc-1; assay: 3D cell proliferation inhibition assay, AsPc-1; type: cell-based; conditions: ASPC1, 168 h, AsPc-1, 7 days, CTG, numeric values
Summary of the method: as §1

[6] = system: KRAS G12D mutant human gastric cancer cell AGS; assay: 3D cell proliferation inhibition assay, AGS; type: cell-based; conditions: 168 h, 7 days, CTG, numeric values
Summary of the method: as §1

KRAS-G12D [7] = target: T1, KRAS-G12D; assay: KRAS-G12D degradation assay (Western Blot), AsPc-1 cells; type: cell-based; conditions: for DC50: 24 h; for Dmax: ASPC1, 24 h
Summary of the method: as §2

[8] = target: T2, Human KRAS G12D 6His-tagged (Homo sapiens, UniProt P01116, G12D); assay: KRAS-G12D/GTP binding assay (HTRF); conditions: numeric values
T2 construct: purchased PerkinElmer
T2 sequence (P01116 1-188 isoform P01116-2 G12D): as above
Summary of the method: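 HTRF kit format: 6His-tagged KRAS G12D incubated with compound (final 0.02-5000 nM, 0.5% DMSO), anti-6His Eu cryptate antibody and GTP Red reagent for 1 h at 25° C. 665/620 nm ratio versus control gave inhibition rates; IC50 by nonlinear fit.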

SMILES	pIC50 [1]	pIC50 [2]	DC50 (KRAS-G12D [3])	Dmax (KRAS-G12D [3]; A-427)	pIC50 [4]	pIC50 [5]	pIC50 [6]	DC50 (KRAS-G12D [7])	Dmax (KRAS-G12D [7])	pIC50 [8]
C#Cc1c(F)ccc2cc(O)cc(-c3ncc4c(N5CC6CCC(C5)N6)nc(OCC5(CN6CCN(CC7CCC8(CC7)CCN(C(=O)c7ccc(CC)c(N9CCC(=O)NC9=O)c7)CC8)CC6)CC5)nc4c3F)c12 [Example 243, 1-(5-(9-((4-((1-(((4-(3,8-diazabicyclo[3.2.1]octan-3-yl)-7-(8-ethynyl-7-fluoro-3-hydroxynaphthalen-1-yl)-8-fluoropyrido[4,3-d]pyrimidin-2-yl)oxy)methyl)cyclopropyl)methyl)piperazin-1-yl)methyl)-3-azaspiro[5.5]undecane-3-carbonyl)-2-ethylphenyl)dihydropyrimidine-2,4(1H,3H)-dione]	6.92	9.21	1.66 nM	92.9%	7.66	8.63	8.67			
C#Cc1c(F)ccc2cc(O)cc(-c3ncc4c(N5CC6CCC(C5)N6)nc(OC[C@@H](CN5CCN(CC6CCC7(CC6)CCN(C(=O)c6ccc(OC)c(N8CCC(=O)NC8=O)c6)CC7)CC5)C(C)C)nc4c3F)c12 [Example 252, 1-(5-(9-((4-((R)-2-(((4-(3,8-diazabicyclo[3.2.1]octan-3-yl)-7-(8-ethynyl-7-fluoro-3-hydroxynaphthalen-1-yl)-8-fluoropyrido[4,3-d]pyrimidin-2-yl)oxy)methyl)-3-methylbutyl)piperazin-1-yl)methyl)-3-azaspiro[5.5]undecane-3-carbonyl)-2-methoxyphenyl)dihydropyrimidine-2,4(1H,3H)-dione]		7.72			7.29	7.68	7.50	42.3 nM	100%	
C#Cc1c(F)ccc2cc(O)cc(-c3ccc4c(N5CC6CCC(C5)N6)nc(OCC(C)CN5CCN(CC6CCC7(CC6)CCN(C(=O)c6ccc(C)c(N8CCC(=O)NC8=O)c6)CC7)CC5)nc4c3F)c12 (stereo not drawn) [Example 174, 1-(5-(9-((4-(3-((4-(3,8-diazabicyclo[3.2.1]octan-3-yl)-7-(8-ethynyl-7-fluoro-3-hydroxynaphthalen-1-yl)-8-fluoroquinazolin-2-yl)oxy)-2-methylpropyl)piperazin-1-yl)methyl)-3-azaspiro[5.5]undecane-3-carbonyl)-2-methylphenyl)dihydropyrimidine-2,4(1H,3H)-dione]	7.19	8.75			7.50	7.20	7.71	13.6 nM	100%	8.28
C#Cc1c(F)ccc2cc(O)cc(-c3ncc4c(N5CC6CCC(C5)N6)nc(OC[C@H](C)CN5CCN(CC6CCC7(CC6)CCN(C(=O)c6ccc(CC)c(N8CCC(=O)NC8=O)c6)CC7)CC5)nc4c3F)c12 [Example 110, 1-(5-(9-((4-((R)-3-((4-(3,8-diazabicyclo[3.2.1]octan-3-yl)-7-(8-ethynyl-7-fluoro-3-hydroxynaphthalen-1-yl)-8-fluoropyrido[4,3-d]pyrimidin-2-yl)oxy)-2-methylpropyl)piperazin-1-yl)methyl)-3-azaspiro[5.5]undecane-3-carbonyl)-2-ethylphenyl)dihydropyrimidine-2,4(1H,3H)-dione]		7.73			7.90	8.35	8.24	2.56 nM	99.2%	
C#Cc1c(F)ccc2cc(O)cc(-c3ncc4c(N5CC6CCC(C5)N6)nc(OC[C@H](C)CN5CCN(CC6CCC7(CC6)CCN(C(=O)c6ccc(Cl)c(N8CCC(=O)NC8=O)c6)CC7)CC5)nc4c3F)c12 [Example 102, 1-(5-(9-((4-((R)-3-((4-(3,8-diazabicyclo[3.2.1]octan-3-yl)-7-(8-ethynyl-7-fluoro-3-hydroxynaphthalen-1-yl)-8-fluoropyrido[4,3-d]pyrimidin-2-yl)oxy)-2-methylpropyl)piperazin-1-yl)methyl)-3-azaspiro[5.5]undecane-3-carbonyl)-2-chlorophenyl)dihydropyrimidine-2,4(1H,3H)-dione]		7.87			7.82	8.43	8.18	8.93 nM	100%	
C#Cc1c(F)ccc2cc(O)cc(-c3ncc4c(N5CC6CCC(C5)N6)nc(OC[C@H](C)CN5CCN(CC6CCC7(CC6)CCN(C(=O)c6cc(N8CCC(=O)NC8=O)c(C)cc6F)CC7)CC5)nc4c3F)c12 [Example 173, 1-(5-(9-((4-((R)-3-((4-(3,8-diazabicyclo[3.2.1]octan-3-yl)-7-(8-ethynyl-7-fluoro-3-hydroxynaphthalen-1-yl)-8-fluoropyrido[4,3-d]pyrimidin-2-yl)oxy)-2-methylpropyl)piperazin-1-yl)methyl)-3-azaspiro[5.5]undecane-3-carbonyl)-4-fluoro-2-methylphenyl)dihydropyrimidine-2,4(1H,3H)-dione]		8.42			8.23	8.82	8.37	2.42 nM	99%	
